Starred links: 1 amine or outer side, 2 acyl side, 3 side chain; linkers in the order of their positions; H or OH if unused. Non-standard residues stand in square brackets, D forms with d. Residues, ends and D or L forms follow the SMILES beside them. X1 = O=C(O)[C@@H]1Cc2ccccc2CN1[C@H](N[*:1])C(=O)[*:2]; 2Thi = N[C@@H](Cc1cccs1)C(=O)O; Cha = N[C@@H](CC1CCCCC1)C(=O)O; Cit = NC(=O)NCCC[C@H](N)C(=O)O; Phg = N[C@H](C(=O)O)c1ccccc1; Tle = CC(C)(C)[C@H](N)C(=O)O; Nva = CCC[C@H](N)C(=O)O; Abu = CC[C@H](N)C(=O)O
Biological target: Beta-secretase 1 (Homo sapiens) (UniProt P56817)
Experiment: Activity of recombinant BACE assessed as retention time of substrate by HPLC method

Beta-secretase 1 (Homo sapiens), sequence (P56817 whole entry): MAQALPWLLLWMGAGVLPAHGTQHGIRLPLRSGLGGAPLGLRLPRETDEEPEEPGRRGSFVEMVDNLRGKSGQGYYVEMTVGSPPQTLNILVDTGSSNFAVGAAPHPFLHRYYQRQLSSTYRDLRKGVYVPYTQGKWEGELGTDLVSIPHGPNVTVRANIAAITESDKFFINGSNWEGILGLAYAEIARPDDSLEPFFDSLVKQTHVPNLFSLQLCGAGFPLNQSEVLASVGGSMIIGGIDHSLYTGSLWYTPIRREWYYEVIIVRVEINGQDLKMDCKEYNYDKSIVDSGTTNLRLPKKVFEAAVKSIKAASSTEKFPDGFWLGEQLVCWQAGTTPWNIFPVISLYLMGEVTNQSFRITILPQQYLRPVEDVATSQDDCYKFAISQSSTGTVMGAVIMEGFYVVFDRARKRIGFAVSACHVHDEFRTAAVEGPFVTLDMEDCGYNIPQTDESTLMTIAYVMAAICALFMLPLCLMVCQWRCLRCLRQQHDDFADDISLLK

SMILES	retention time
CC[C@H](C)[C@H](N)C(=O)N[C@@H](CO)C(=O)N[C@@H](CCC(=O)O)C(=O)N[C@H](C(=O)N[C@@H](CCCCN)C(=O)N[C@@H](CCSC)C(=O)N[C@@H](CC(=O)O)C(=O)N[C@@H](C)C(=O)N[C@@H](CCC(=O)O)C(=O)N[C@@H](Cc1ccccc1)C(=O)N[C@@H](CCCNC(=N)N)C(=O)N[C@@H](Cc1cnc[nH]1)C(N)=O)C(C)C (H-ISEVKMDAEFRH-NH2)	0.419 h
CCC[C@H](N)C(=O)N[C@@H](C)C(=O)N[C@@H](CCC(=O)O)C(=O)N[C@@H](Cc1ccccc1)C(=O)N[C@@H](CCCNC(=N)N)C(=O)N[C@@H](Cc1cnc[nH]1)C(N)=O (H-[Nva]AEFRH-NH2)	0.269 h
CC[C@H](NC(=O)[C@@H](NC(=O)[C@H](CCC(=O)O)NC(=O)[C@H](CO)NC(=O)[C@@H](N)[C@@H](C)CC)C(C)C)C(=O)N[C@@H](CC(C)C)C(=O)N[C@@H](CC(=O)O)C(=O)N[C@@H](C)C(=O)N[C@@H](CCC(=O)O)C(=O)N[C@@H](Cc1ccccc1)C(=O)N[C@@H](CCCNC(=N)N)C(=O)N[C@@H](Cc1cnc[nH]1)C(N)=O (H-ISEV[Abu]LDAEFRH-NH2)	0.5 h
CC[C@H](C)[C@H](N)C(=O)N[C@@H](CO)C(=O)N[C@@H](CCC(=O)O)C(=O)N[C@H](C(=O)N[C@@H](CC(N)=O)C(=O)N[C@H](C(=O)N[C@@H](CC(=O)O)C(=O)N[C@@H](C)C(=O)N[C@@H](CCC(=O)O)C(=O)N[C@@H](Cc1ccccc1)C(=O)N[C@@H](CCCNC(=N)N)C(=O)N[C@@H](Cc1cnc[nH]1)C(N)=O)N1Cc2ccccc2C[C@H]1C(=O)O)C(C)C (H-ISEVN[X1]DAEFRH-NH2)	0.502 h
CC[C@H](C)[C@H](N)C(=O)N[C@@H](CO)C(=O)N[C@H](C(=O)N[C@H](C(=O)N[C@@H](CC(N)=O)C(=O)N[C@@H](CC(C)C)C(=O)N[C@@H](CC(=O)O)C(=O)N[C@@H](C)C(=O)N[C@@H](CCC(=O)O)C(=O)N[C@@H](Cc1ccccc1)C(=O)N[C@@H](CCCNC(=N)N)C(=O)N[C@@H](Cc1cnc[nH]1)C(N)=O)C(C)C)N1Cc2ccccc2C[C@H]1C(=O)O (H-IS[X1]VNLDAEFRH-NH2)	0.628 h
CC[C@H](C)[C@H](N)C(=O)N[C@@H](CO)C(=O)N[C@@H](CC1CCCCC1)C(=O)N[C@H](C(=O)N[C@@H](CC(N)=O)C(=O)N[C@@H](CC(C)C)C(=O)N[C@@H](CC(=O)O)C(=O)N[C@@H](C)C(=O)N[C@@H](CCC(=O)O)C(=O)N[C@@H](Cc1ccccc1)C(=O)N[C@@H](CCCNC(=N)N)C(=O)N[C@@H](Cc1cnc[nH]1)C(N)=O)C(C)C (H-IS[Cha]VNLDAEFRH-NH2)	0.689 h
CC[C@H](C)[C@H](N)C(=O)N[C@@H](CO)C(=O)N[C@@H](CCC(=O)O)C(=O)N[C@@H](Cc1cccs1)C(=O)N[C@@H](CC(N)=O)C(=O)N[C@@H](CC(C)C)C(=O)N[C@@H](CC(=O)O)C(=O)N[C@@H](C)C(=O)N[C@@H](CCC(=O)O)C(=O)N[C@@H](Cc1ccccc1)C(=O)N[C@@H](CCCNC(=N)N)C(=O)N[C@@H](Cc1cnc[nH]1)C(N)=O (H-ISE[2Thi]NLDAEFRH-NH2)	0.533 h
CC[C@H](C)[C@H](N)C(=O)N[C@@H](CO)C(=O)N[C@@H](CCC(=O)O)C(=O)N[C@@H](CC1CCCCC1)C(=O)N[C@@H](CC(N)=O)C(=O)N[C@@H](CC(C)C)C(=O)N[C@@H](CC(=O)O)C(=O)N[C@@H](C)C(=O)N[C@@H](CCC(=O)O)C(=O)N[C@@H](Cc1ccccc1)C(=O)N[C@@H](CCCNC(=N)N)C(=O)N[C@@H](Cc1cnc[nH]1)C(N)=O (H-ISE[Cha]NLDAEFRH-NH2)	0.592 h
CC[C@H](C)[C@H](N)C(=O)N[C@@H](CO)C(=O)N[C@@H](CCC(=O)O)C(=O)N[C@H](C(=O)N[C@@H](CC(N)=O)C(=O)N[C@@H](CC(C)C)C(=O)N[C@H](C(=O)N[C@@H](C)C(=O)N[C@@H](CCC(=O)O)C(=O)N[C@@H](Cc1ccccc1)C(=O)N[C@@H](CCCNC(=N)N)C(=O)N[C@@H](Cc1cnc[nH]1)C(N)=O)c1ccccc1)C(C)C (H-ISEVNL[Phg]AEFRH-NH2)	0.617 h
CC[C@H](C)[C@H](N)C(=O)N[C@@H](CO)C(=O)N[C@@H](CCC(=O)O)C(=O)N[C@@H](CCC(=O)O)C(=O)N[C@@H](CC(N)=O)C(=O)N[C@@H](CC(C)C)C(=O)N[C@@H](CC(=O)O)C(=O)N[C@@H](C)C(=O)N[C@@H](CCC(=O)O)C(=O)N[C@@H](Cc1ccccc1)C(=O)N[C@@H](CCCNC(=N)N)C(=O)N[C@@H](Cc1cnc[nH]1)C(N)=O (H-ISEENLDAEFRH-NH2)	0.457 h
CC[C@H](C)[C@H](N)C(=O)N[C@@H](CO)C(=O)N[C@@H](CCC(=O)O)C(=O)N[C@H](C(=O)N[C@@H](CC(N)=O)C(=O)N[C@@H](CC(C)C)C(=O)N[C@@H](Cc1cccs1)C(=O)N[C@@H](C)C(=O)N[C@@H](CCC(=O)O)C(=O)N[C@@H](Cc1ccccc1)C(=O)N[C@@H](CCCNC(=N)N)C(=O)N[C@@H](Cc1cnc[nH]1)C(N)=O)C(C)C (H-ISEVNL[2Thi]AEFRH-NH2)	0.656 h
CC[C@H](C)[C@H](N)C(=O)N[C@@H](CO)C(=O)N[C@@H](CCC(=O)O)C(=O)N[C@H](C(=O)N[C@@H](CC(N)=O)C(=O)N[C@@H](CC(C)C)C(=O)N[C@@H](CCC(N)=O)C(=O)N[C@@H](C)C(=O)N[C@@H](CCC(=O)O)C(=O)N[C@@H](Cc1ccccc1)C(=O)N[C@@H](CCCNC(=N)N)C(=O)N[C@@H](Cc1cnc[nH]1)C(N)=O)C(C)C (H-ISEVNLQAEFRH-NH2)	0.52 h
CC[C@H](C)[C@H](N)C(=O)N[C@@H](CO)C(=O)N[C@@H](CCC(=O)O)C(=O)N[C@H](C(=O)N[C@@H](CC(N)=O)C(=O)N[C@@H](CC(C)C)C(=O)N[C@@H](CCCNC(N)=O)C(=O)N[C@@H](C)C(=O)N[C@@H](CCC(=O)O)C(=O)N[C@@H](Cc1ccccc1)C(=O)N[C@@H](CCCNC(=N)N)C(=O)N[C@@H](Cc1cnc[nH]1)C(N)=O)C(C)C (H-ISEVNL[Cit]AEFRH-NH2)	0.536 h
CC[C@H](C)[C@H](N)C(=O)N[C@@H](CO)C(=O)N[C@@H](CCC(=O)O)C(=O)N[C@H](C(=O)N[C@@H](CC1CCCCC1)C(=O)N[C@@H](CC(C)C)C(=O)N[C@@H](CC(=O)O)C(=O)N[C@@H](C)C(=O)N[C@@H](CCC(=O)O)C(=O)N[C@@H](Cc1ccccc1)C(=O)N[C@@H](CCCNC(=N)N)C(=O)N[C@@H](Cc1cnc[nH]1)C(N)=O)C(C)C (H-ISEV[Cha]LDAEFRH-NH2)	0.616 h
CC[C@H](C)[C@H](N)C(=O)N[C@@H](CO)C(=O)N[C@@H](CCC(N)=O)C(=O)N[C@H](C(=O)N[C@@H](CC(N)=O)C(=O)N[C@@H](CC(C)C)C(=O)N[C@@H](CC(=O)O)C(=O)N[C@@H](C)C(=O)N[C@@H](CCC(=O)O)C(=O)N[C@@H](Cc1ccccc1)C(=O)N[C@@H](CCCNC(=N)N)C(=O)N[C@@H](Cc1cnc[nH]1)C(N)=O)C(C)C (H-ISQVNLDAEFRH-NH2)	0.469 h
CC[C@H](C)[C@H](N)C(=O)N[C@@H](CO)C(=O)N[C@@H](CCC(=O)O)C(=O)N[C@H](C(=O)N[C@@H](CC(N)=O)C(=O)N[C@@H](Cc1ccc(O)cc1)C(=O)N[C@@H](CC(=O)O)C(=O)N[C@@H](C)C(=O)N[C@@H](CCC(=O)O)C(=O)N[C@@H](Cc1ccccc1)C(=O)N[C@@H](CCCNC(=N)N)C(=O)N[C@@H](Cc1cnc[nH]1)C(N)=O)C(C)C (H-ISEVNYDAEFRH-NH2)	0.42 h
CC[C@H](C)[C@H](N)C(=O)N[C@@H](CO)C(=O)N[C@@H](CCC(=O)O)C(=O)N[C@H](C(=O)N[C@H](C(=O)N[C@@H](CC(C)C)C(=O)N[C@@H](CC(=O)O)C(=O)N[C@@H](C)C(=O)N[C@@H](CCC(=O)O)C(=O)N[C@@H](Cc1ccccc1)C(=O)N[C@@H](CCCNC(=N)N)C(=O)N[C@@H](Cc1cnc[nH]1)C(N)=O)C(C)(C)C)C(C)C (H-ISEV[Tle]LDAEFRH-NH2)	0.531 h
CC[C@H](C)[C@H](N)C(=O)N[C@@H](CO)C(=O)N[C@@H](CCC(=O)O)C(=O)N[C@H](C(=O)N[C@@H](CC(N)=O)C(=O)N[C@@H](CC(C)C)C(=O)N[C@H](C(=O)N[C@@H](C)C(=O)N[C@@H](CCC(=O)O)C(=O)N[C@@H](Cc1ccccc1)C(=O)N[C@@H](CCCNC(=N)N)C(=O)N[C@@H](Cc1cnc[nH]1)C(N)=O)N1Cc2ccccc2C[C@H]1C(=O)O)C(C)C (H-ISEVNL[X1]AEFRH-NH2)	0.648 h
CC[C@H](NC(=O)[C@H](CO)NC(=O)[C@@H](N)[C@@H](C)CC)C(=O)N[C@H](C(=O)N[C@@H](CC(N)=O)C(=O)N[C@@H](CC(C)C)C(=O)N[C@@H](CC(=O)O)C(=O)N[C@@H](C)C(=O)N[C@@H](CCC(=O)O)C(=O)N[C@@H](Cc1ccccc1)C(=O)N[C@@H](CCCNC(=N)N)C(=O)N[C@@H](Cc1cnc[nH]1)C(N)=O)C(C)C (H-IS[Abu]VNLDAEFRH-NH2)	0.528 h
CC[C@H](C)[C@H](N)C(=O)N[C@@H](CO)C(=O)N[C@H](C(=O)N[C@H](C(=O)N[C@@H](CC(N)=O)C(=O)N[C@@H](CC(C)C)C(=O)N[C@@H](CC(=O)O)C(=O)N[C@@H](C)C(=O)N[C@@H](CCC(=O)O)C(=O)N[C@@H](Cc1ccccc1)C(=O)N[C@@H](CCCNC(=N)N)C(=O)N[C@@H](Cc1cnc[nH]1)C(N)=O)C(C)C)C(C)(C)C (H-IS[Tle]VNLDAEFRH-NH2)	0.588 h
CC[C@H](C)[C@H](N)C(=O)N[C@@H](CO)C(=O)N[C@@H](CCC(=O)O)C(=O)N[C@H](C(=O)N[C@@H](CC(N)=O)C(=O)N[C@@H](CC(C)C)C(=O)N[C@@H](CC1CCCCC1)C(=O)N[C@@H](C)C(=O)N[C@@H](CCC(=O)O)C(=O)N[C@@H](Cc1ccccc1)C(=O)N[C@@H](CCCNC(=N)N)C(=O)N[C@@H](Cc1cnc[nH]1)C(N)=O)C(C)C (H-ISEVNL[Cha]AEFRH-NH2)	0.727 h
CC[C@H](C)[C@H](N)C(=O)N[C@@H](CO)C(=O)N[C@@H](CCC(=O)O)C(=O)N[C@H](C(=O)N[C@@H](Cc1ccccc1)C(=O)N[C@@H](CC(C)C)C(=O)N[C@@H](CC(=O)O)C(=O)N[C@@H](C)C(=O)N[C@@H](CCC(=O)O)C(=O)N[C@@H](Cc1ccccc1)C(=O)N[C@@H](CCCNC(=N)N)C(=O)N[C@@H](Cc1cnc[nH]1)C(N)=O)C(C)C (H-ISEVFLDAEFRH-NH2)	0.565 h
CC[C@H](C)[C@H](N)C(=O)N[C@@H](CO)C(=O)N[C@@H](CCC(=O)O)C(=O)N[C@H](C(=O)N[C@@H](CC(N)=O)C(=O)N[C@@H](CC(C)C)C(=O)N[C@@H](CC(=O)O)C(=O)N[C@@H](C)C(=O)N[C@@H](CCC(=O)O)C(=O)N[C@@H](Cc1ccccc1)C(=O)N[C@@H](CCCNC(=N)N)C(=O)N[C@@H](Cc1cnc[nH]1)C(N)=O)c1ccccc1 (H-ISE[Phg]NLDAEFRH-NH2)	0.514 h

From ChEMBL document CHEMBL1773037, “Evaluation of superior BACE1 cleavage sequences containing unnatural amino acids” (Bioorg Med Chem, 2011)
